Test results as given in patent US12521363B2, “Use of levodopa, carbidopa and entacapone for treating Parkinson's disease” (ORION CORPORATION, priority 2010, dated 2026).

Experiments:
[1] = cited from earlier work
[2] = Repeated-dose levodopa/carbidopa pharmacokinetics with and without entacapone, human subjects (Example 1); format: in vivo; settings: for levodopa pharmacokinetics, effect of increasing the carbidopa dose: repeated dosing 4 times a day, levodopa 100 mg, carbidopa 25/50/100 mg
Description: The primary objective of the study was to evaluate the effects of different carbidopa dose levels on the pharmacokinetics (PKs) of levodopa with and without concomitant administration of entacapone. This was the first study to evaluate the effect of the combinations in a repeated dose setting in human subjects. Pharmacokinetics of levodopa in the presence of AADC and COMT inhibition with substances like carbidopa and entacapone is complex and difficult to model based on single dose PK data in humans, or animal models. However, it has been shown earlier that levodopa PK in healthy subjects is similar to that seen in PD patients and therefore the results of this study indicate how the levodopa PK will be in PD patients and how the levodopa PK will predict symptom control of PD. A total of 25 human subjects were enrolled into the study. The study subjects were randomly allocated to receive either 200 mg of entacapone or corresponding placebo in each treatment period. Entacapone, or a corresponding placebo, was administered concomitantly with 100 mg of levodopa and 25 mg of carbidopa at 3.5-hour intervals 4 times a day. In addition, the study subjects received in a randomised order in each treatment period one of the additional dose levels (0 mg, 25 mg, and 75 mg) of carbidopa. There were 3 treatment periods, one for each carbidopa dose level and for the same subjects with cross-over design so that each subject participated for the 3 periods. There were two groups with the same carbidopa doses, one group with and one group without concomitant entacapone administration. By this study design, the effect of entacapone on carbidopa dose escalation and subsequently to levodopa PK could be assessed in repeated dose setting in humans. Dose combinations were: • A: Entacapone 200 mg+levodopa 100 mg+carbidopa 25 mg • B: Entacapone 200 mg+levodopa 100 mg+carbidopa 50 mg • C: Entacapone 200 mg+levodopa 100 mg+carbidopa 100 mg • E: Levodopa 100 mg+carbidopa 25 mg • F: Levodopa 100 mg+carbidopa 50 mg • G: Levodopa 100 mg+carbidopa 100 mg After the first and last dose of the day, the whole levodopa and carbidopa plasma profiles were assessed and after the second and third dose only the minimum concentrations (just before the next dose at 3.5 and at 7.0 hours) were assessed.

[3] = Repeated-dose levodopa pharmacokinetics with increasing carbidopa, entacapone dose levels or tolcapone (Example 2); format: in vivo, human; settings: repeated dosing, increased COMT-inhibition by higher entacapone dose or by tolcapone
Description: The primary objective of the study was to evaluate the effects of different carbidopa dose levels on the pharmacokinetics (PKs) of levodopa with concomitant administration of different entacapone dose levels and with the moderately potent COMT inhibitor tolcapone.
The study subjects were randomly allocated to receive either increasing doses of entacapone or standard dose of tolcapone combined with increasing doses of carbidopa in each treatment period, a total of 12 different dose combinations. Entacapone was administered concomitantly with 100 mg of levodopa and 25 mg of carbidopa at 3.5-hour intervals 4 times a day and tolcapone 3 times a day. In addition, the study subjects received increasing dose levels of carbidopa.
There were three groups, one for each carbidopa dose level, and 4 treatment periods in each group, one for each entacapone dose level or for tolcapone and for the same subjects with cross-over design so that one subject participated for the 4 periods. By this study design the effect of entacapone and tolcapone on carbidopa dose escalation and subsequently to levodopa PK could be assessed in repeated dose setting in humans.
After each levodopa dose of the day, the levodopa plasma profile was assessed. The levodopa plasma concentrations after entacapone dose escalation and tolcapone standard dose and with increased carbidopa dose are given in FIG. 3.

[4] = increased carbidopa dose in the presence of a COMT inhibitor

## Cc1c(Cl)c(C)[n+]([O-])c(Cl)c1-c1noc(-c2cc(O)c(O)c([N+](=O)[O-])c2)n1 [BIA 9-1067, 5-[3-(2,5-dichloro-4,6-dimethyl-1-oxypyridin-3-yl)-[1,2,4]oxadiazol-5-yl]-3-nitrobenzene-1,2-diol]
[1]
  solubility: poorly soluble

## C[C@@](Cc1ccc(O)c(O)c1)(NN)C(=O)O [carbidopa, (−)-L-alpha-hydrazino-alpha-methyl-beta-(3,4-dihydroxybenzene)propionic acid]
[2]; increased carbidopa dose, repeated dosing, towards the end of the dosing period
  accumulation of carbidopa concentrations in plasma: no accumulation

## CCN(CC)C(=O)/C(C#N)=C/c1cc(O)c(O)c([N+](=O)[O-])c1 [entacapone, (E)-2-cyano-3-(3,4-dihydroxy-5-nitrophenyl)-N-diethyl-2 propenamide]
[1]; water
  water solubility: poor solubility

## N[C@@H](Cc1ccc(O)c(O)c1)C(=O)O [levodopa, (−)-L-alpha-amino-beta-(3,4-dihydroxybenzene)propanoic acid]
[3]
  levodopa pharmacokinetics, effect of increasing the carbidopa dose: significantly improve
[2]; [4]
  AUC of levodopa: significantly increased
  Cmin of levodopa: significantly increased
[2]; increased carbidopa dose with COMT inhibitor
  maximum concentrations of levodopa: not clinically significantly increased
[2]; with entacapone 200 mg
  levodopa pharmacokinetics, effect of increasing the carbidopa dose: significantly improve
[2]; without entacapone
  levodopa pharmacokinetics, effect of increasing the carbidopa dose: did not have such an effect
